{"source": "patent US20040214799A1", "about": "“Cancerous metastasis inhibitors containing carbacyclic phosphatidic acid derivatives” (priority 2001, published 2004)", "key": {"[1]": {"system": "MM1 cells", "assay": "Effect on the proliferation of MM1 cells", "format": "cell-based, rat", "conditions": "12.5 μM or 25 μM cPA, 10% FBS, 24 hours and 72 hours", "description": "12.5 μM and 25 μM cPA were added to media containing 10% FBS, and then the cells were cultured under conditions of 37° C. and 5% CO2 for 24 hours and 72 hours. The number of the MM1 cells was counted using a hemocytometer."}, "[2]": {"system": "Mouse malignant melanoma B16-F0", "assay": "B16 melanoma hematogenous lung metastasis model; as to Metastatic nodules, Abdominal cavity Adipose tissue: key: −: Absent; +: Present; as to Metastatic nodules, Abdominal cavity Adrenal gland: key: −: Absent; +: Present; as to Metastatic nodules, Abdominal cavity Diaphragm: key: −: Absent; +: Present; as to Metastatic nodules, Abdominal cavity Kidney: key: −: Absent; +: Present; as to Metastatic nodules, Abdominal cavity Ovary: key: −: Absent; +: Present; as to Metastatic nodules, Abdominal cavity Spleen: key: −: Absent; +: Present; as to Metastatic nodules, Thoracic cavity: key: −: Absent; +: Present; as to Metastatic nodules, Tissue around glandual clitoris: key: −: Absent; +: Present", "format": "in vivo", "conditions": "for invasion of lymphocytes into metastatic lesions observed in cases: animals with metastatic lesions; for Metastatic nodules, Abdominal cavity Adipose tissue / Metastatic nodules, Abdominal cavity Adrenal gland / Metastatic nodules, Abdominal cavity Diaphragm / Metastatic nodules, Abdominal cavity Kidney / Metastatic nodules, Abdominal cavity Ovary / Metastatic nodules, Abdominal cavity Spleen / Metastatic nodules, Thoracic cavity / Metastatic nodules, Tissue around glandual clitoris: autopsy day 14, individual animals; for Number of lung tumor nodules, Range (mininum-maximum) / Number of mice having lung tumor nodules: day 14, N 6; for Number of lung tumor nodules: day 14, mean ± S.D.; for Number of lung tumor nodules / Number of mice having metastatic lesions: N 6; for Number of mice having metastatic lesions / Findings: Invasion of lymphocytes into melanoma metastatic lesion: lung histopathology; for Findings: Invasion of lymphocytes into melanoma metastatic lesion: individual animals; for Number of metastatic lesions per section, Large size: major diameter 0.65 mm ≦ and <1.3 mm; for Number of metastatic lesions per section, Large size / Number of metastatic lesions per section, Small size / Number of metastatic lesions per section, Total: mean ± S.D.; for Number of metastatic lesions per section, Small size: major diameter <0.65 mm, left lobe and posterior lobe", "description": "cPA-19 and cPA-20 were used as test substances. 0.1 w/v % BSA/PBS which was prepared by dissolving Albumin, Bovine [essentially Fatty Acid Free] (BSA, Lot No. 89H7604, Sigma chemical company) in Ca^2+ and Mg^2+ free PBS (pH 7.2), was used as a medium After preparation, the solution was sterilized by filtration using a filter (0.22 μm, Millipore). Preparation was performed when used. cPA-5 was used as a positive control substance.\nA medium was added in a volume required for a test substance or a positive control substance. Dissolution was performed by ultrasonication, thereby preparing a 0.16 mg/mL solution. The 0.16 mg/mL solution containing a test substance was diluted with a medium, thereby preparing 0.08 and 0.02 mg/mL solutions. All mixtures were prepared when used.\nMice were purchased from CHARLES RIVER JAPAN. INC. The line employed herein was C57BL/6NCrj (sexuality: female). The number of animals kept in stock was 60, and the age of these animals when kept in stock was 4 weeks. […] The environmental conditions for the test system were as follows:\nMouse malignant melanoma B16-F0 was used as a tumor cell. The cell was purchased from Dainippon Pharmaceutical Co., Ltd.\nDulbecco's Modified Eagle's Media containing 10% feral bovine serum and kanamycin were used for culture. […] A medium was added to stop the action of trypsin while pipetting, thereby preparing a cell suspension. The suspension was diluted by one-tenth with a medium for culturing, followed by subculturing until it reached a volume sufficient for grafting.\nA cell suspension was prepared by the same technique as the subculture method. Specifically, the cells were washed with a Ca^2+ and Mg^2+ free phosphate buffer [PBS(−)], and then harvested. The harvested cells were suspended in a 10 mL of PBS(−), thereby preparing a cell suspension. The number of cells in the cell suspension was measured to obtain the total cell number. 50 μL of the cell suspension, 100 μL of 0.4% trypan blue liquid and 100 μL of PBS(−) were mixed, and then viable count was measured. The survival rate of the cells was calculated from the viable count and total cell number.\nBased on the body weight on the day of the administration of the test substance, mice were grouped into 8 test groups according to the stratified continuous randomization method as shown in Table 2 below.\nThe mixture was administered via the caudal vein. The number of grafted cells was 5×10^5 cells/body. The dose of the test substance was 0.001, 0.004 or 0.008 mg/body, and the dose of the positive control substance was 0.008 mg/body.\nOn day 14 after the administration of the test substance, blood was collected from the posterior portion of the abdominal vena cava under isoflurane anesthesia. After the mice were sacrificed by blood-letting, the presence or absence of intrapleural and intraperitoneal metastatic nodules was confirmed. Lungs were extracted, and then fixed with a 10% neutral buffered formalin solution. The number of nodules resulting from lung metastasis was measured under a stereoscopic microscope (magnification: 10 times).\nAfter the measurement of the number of nodules resulting from lung metastasis, samples were paraffin-embedded, and then thin sections were prepared. Hematoxylin eosinic-stained samples were prepared from these sections. The number of metastatic lesions in the certain portions of the left lobe and the posterior lobe was measured, and then the lesions were sorted by size. On the basis of the diameter (0.65 mm) of an object lens (×40), metastatic lesions with major diameters of less than 0.65 mm were classified as having a small size, and those with major diameters of between 0.65 mm or more and less than 1.30 mm were classified as having a large size. Furthermore, the degree of invasion of lymphocytes into metastatic lesions was confirmed qualitatively.\nThe representative value of each test group was denoted as mean±standard deviation (mean±S.D.). Differences in mean values were examined as follows."}, "[3]": {"conditions": "0.001 mg/body i.v., autopsy, 6 mice"}, "[4]": {"conditions": "0.004 mg/body i.v., autopsy, 6 mice"}, "[5]": {"conditions": "0.008 mg/body i.v., autopsy, 6 mice"}}, "note": "“And” between values parts separate entries of the source, which are not always exact repeats. Identical values can stand only once.", "data": [{"substance": "carba-Ole-cPA [cPA-19]", "values": [{"measurement": "effect on MM1 cell proliferation (in words)", "setting": "[1]", "result": "showed proliferation suppressing activity"}, {"measurement": "invasion of lymphocytes into metastatic lesions observed in cases", "setting": "[2]; 0.001 mg/body i.v.", "result": "1 out of 6"}, {"measurement": "Metastatic nodules, Abdominal cavity Adipose tissue", "setting": "[2]; 0.001 mg/body i.v.", "result": "+ and − (5×)"}, {"measurement": "Metastatic nodules, Abdominal cavity Adrenal gland", "setting": "[2]; 0.001 mg/body i.v.", "result": "+ and − (5×)"}, {"measurement": "Metastatic nodules, Abdominal cavity Diaphragm", "setting": "[2]; 0.001 mg/body i.v.", "result": "−"}, {"measurement": "Metastatic nodules, Abdominal cavity Kidney", "setting": "[2]; 0.001 mg/body i.v.", "result": "+ (2×) and − (4×)"}, {"measurement": "Metastatic nodules, Abdominal cavity Ovary", "setting": "[2]; 0.001 mg/body i.v.", "result": "+ (2×) and − (4×)"}, {"measurement": "Metastatic nodules, Abdominal cavity Spleen", "setting": "[2]; 0.001 mg/body i.v.", "result": "− (5×) and +"}, {"measurement": "Metastatic nodules, Thoracic cavity", "setting": "[2]; 0.001 mg/body i.v.", "result": "− (5×) and +"}, {"measurement": "Metastatic nodules, Tissue around glandual clitoris", "setting": "[2]; 0.001 mg/body i.v.", "result": "−"}, {"measurement": "cases with metastatic nodules in adipose tissue", "setting": "[2]; [3]", "result": 1, "unit": "case"}, {"measurement": "cases with metastatic nodules in the adrenal gland", "setting": "[2]; [3]", "result": 1, "unit": "case"}, {"measurement": "cases with metastatic nodules in the kidney", "setting": "[2]; [3]", "result": 2, "unit": "cases"}, {"measurement": "cases with metastatic nodules in the ovary", "setting": "[2]; [3]", "result": 2, "unit": "cases"}, {"measurement": "cases with metastatic nodules in the spleen", "setting": "[2]; [3]", "result": 1, "unit": "case"}, {"measurement": "cases with metastatic nodules in the thoracic cavity", "setting": "[2]; [3]", "result": 1, "unit": "case"}, {"measurement": "Number of lung tumor nodules, Range (mininum-maximum)", "setting": "[2]; 0.001 mg/body i.v.", "result": "37-66"}, {"measurement": "Number of mice having lung tumor nodules", "setting": "[2]; 0.001 mg/body i.v.", "result": 6}, {"measurement": "Number of lung tumor nodules", "setting": "[2]; 0.001 mg/body i.v.", "result": "54 ± 12"}, {"measurement": "Number of mice having metastatic lesions", "setting": "[2]; 0.001 mg/body i.v.", "result": 6}, {"measurement": "Findings: Invasion of lymphocytes into melanoma metastatic lesion", "setting": "[2]; 0.001 mg/body i.v.", "result": "− (5×) and +"}, {"measurement": "Number of metastatic lesions per section, Large size", "setting": "[2]; 0.001 mg/body i.v.", "result": "0.7 ± 0.8"}, {"measurement": "Number of metastatic lesions per section, Small size", "setting": "[2]; 0.001 mg/body i.v.", "result": "3.0 ± 1.3"}, {"measurement": "Number of metastatic lesions per section, Total", "setting": "[2]; 0.001 mg/body i.v.", "result": "3.7 ± 1.8"}, {"measurement": "number of metastatic nodules of B16-F0 in the lungs versus medium group (in words)", "setting": "[2]; 0.004 mg/body i.v.", "result": "significant decrease in the number of metastatic nodules"}, {"measurement": "invasion of lymphocytes into metastatic lesions observed in cases", "setting": "[2]; 0.004 mg/body i.v.", "result": "no invasions were observed in 2 cases"}, {"measurement": "Metastatic nodules, Abdominal cavity Adipose tissue", "setting": "[2]; 0.004 mg/body i.v.", "result": "− (5×) and +"}, {"measurement": "Metastatic nodules, Abdominal cavity Adrenal gland", "setting": "[2]; 0.004 mg/body i.v.", "result": "− (5×) and +"}, {"measurement": "Metastatic nodules, Abdominal cavity Diaphragm", "setting": "[2]; 0.004 mg/body i.v.", "result": "−"}, {"measurement": "Metastatic nodules, Abdominal cavity Kidney", "setting": "[2]; 0.004 mg/body i.v.", "result": "−"}, {"measurement": "Metastatic nodules, Abdominal cavity Ovary", "setting": "[2]; 0.004 mg/body i.v.", "result": "−"}, {"measurement": "Metastatic nodules, Abdominal cavity Spleen", "setting": "[2]; 0.004 mg/body i.v.", "result": "+ and − (5×)"}, {"measurement": "Metastatic nodules, Thoracic cavity", "setting": "[2]; 0.004 mg/body i.v.", "result": "−"}, {"measurement": "Metastatic nodules, Tissue around glandual clitoris", "setting": "[2]; 0.004 mg/body i.v.", "result": "−"}, {"measurement": "cases with metastatic nodules in adipose tissue", "setting": "[2]; [4]", "result": 1, "unit": "case"}, {"measurement": "cases with metastatic nodules in the adrenal gland", "setting": "[2]; [4]", "result": 1, "unit": "case"}, {"measurement": "cases with metastatic nodules in the spleen", "setting": "[2]; [4]", "result": 1, "unit": "case"}, {"measurement": "metastatic nodules in the thoracic cavity", "setting": "[2]; [4]", "result": "no metastatic nodules were observed"}, {"measurement": "Number of lung tumor nodules, Range (mininum-maximum)", "setting": "[2]; 0.004 mg/body i.v.", "result": "2-6"}, {"measurement": "Number of mice having lung tumor nodules", "setting": "[2]; 0.004 mg/body i.v.", "result": 6}, {"measurement": "Number of lung tumor nodules", "setting": "[2]; 0.004 mg/body i.v.", "result": "4 ± 2"}, {"measurement": "Number of mice having metastatic lesions", "setting": "[2]; 0.004 mg/body i.v.", "result": "2 &"}, {"measurement": "Findings: Invasion of lymphocytes into melanoma metastatic lesion", "setting": "[2]; 0.004 mg/body i.v.", "result": "−"}, {"measurement": "Number of metastatic lesions per section, Large size", "setting": "[2]; 0.004 mg/body i.v.", "result": "0 ± 0!!"}, {"measurement": "Number of metastatic lesions per section, Small size", "setting": "[2]; 0.004 mg/body i.v.", "result": "0.3 ± 0.5"}, {"measurement": "Number of metastatic lesions per section, Total", "setting": "[2]; 0.004 mg/body i.v.", "result": "0.3 ± 0.5!"}, {"measurement": "metastasis / number of metastatic nodules in the lungs versus medium group (in words)", "setting": "[2]; 0.008 mg/body i.v.", "result": "almost completely suppressed metastasis"}, {"measurement": "Metastatic nodules, Abdominal cavity Adipose tissue", "setting": "[2]; 0.008 mg/body i.v.", "result": "−"}, {"measurement": "Metastatic nodules, Abdominal cavity Adrenal gland", "setting": "[2]; 0.008 mg/body i.v.", "result": "−"}, {"measurement": "Metastatic nodules, Abdominal cavity Diaphragm", "setting": "[2]; 0.008 mg/body i.v.", "result": "−"}, {"measurement": "Metastatic nodules, Abdominal cavity Kidney", "setting": "[2]; 0.008 mg/body i.v.", "result": "−"}, {"measurement": "Metastatic nodules, Abdominal cavity Ovary", "setting": "[2]; 0.008 mg/body i.v.", "result": "−"}, {"measurement": "Metastatic nodules, Abdominal cavity Spleen", "setting": "[2]; 0.008 mg/body i.v.", "result": "− (5×) and +"}, {"measurement": "Metastatic nodules, Thoracic cavity", "setting": "[2]; 0.008 mg/body i.v.", "result": "−"}, {"measurement": "Metastatic nodules, Tissue around glandual clitoris", "setting": "[2]; 0.008 mg/body i.v.", "result": "−"}, {"measurement": "cases with metastatic nodules in the spleen", "setting": "[2]; [5]", "result": 1, "unit": "case"}, {"measurement": "metastatic nodules in the thoracic cavity", "setting": "[2]; [5]", "result": "no metastatic nodules were observed"}, {"measurement": "Number of lung tumor nodules, Range (mininum-maximum)", "setting": "[2]; 0.008 mg/body i.v.", "result": 0}, {"measurement": "Number of mice having lung tumor nodules", "setting": "[2]; 0.008 mg/body i.v.", "result": "0 &&"}, {"measurement": "Number of lung tumor nodules", "setting": "[2]; 0.008 mg/body i.v.", "result": "0 ± 0"}, {"measurement": "Number of mice having metastatic lesions", "setting": "[2]; 0.008 mg/body i.v.", "result": "0 &&"}, {"measurement": "Number of metastatic lesions per section, Large size", "setting": "[2]; 0.008 mg/body i.v.", "result": "0 ± 0!!"}, {"measurement": "Number of metastatic lesions per section, Small size", "setting": "[2]; 0.008 mg/body i.v.", "result": "0 ± 0!"}, {"measurement": "Number of metastatic lesions per section, Total", "setting": "[2]; 0.008 mg/body i.v.", "result": "0 ± 0!!"}, {"measurement": "number of mice having intrapleural or intraperitoneal metastatic nodules, dose dependence (in words)", "setting": "[2]; 0.001, 0.004 and 0.008 mg/body i.v.", "result": "decreased as the dose increased"}, {"measurement": "action of suppressing the lung metastasis of B16-F0 compared with cPA-5", "setting": "[2]; 0.004 and 0.008 mg/body i.v.", "result": "stronger than that of cPA-5"}]}]}
